Laboratory results: patent USRE48335E1, “Polymyxin derivatives as antimicrobial compounds” (priority 2014, dated 2020)
Converted amounts (≈) assume the structure as drawn. Read-outs that look alike come from different tables or passages of the source. Positions of bridges follow the written chain, without caps; N, C: chain ends. Non-standard residues stand in square brackets, D forms with d. Residues, ends and D or L forms follow the SMILES beside them. *: point of attachment. Phenylacetyl(3-Cl) = O=C(Cc1cccc(Cl)c1)*; Benzoyl(2,3-Cl2) = O=C(c1cccc(Cl)c1Cl)*; Benzoyl(3-Cl) = O=C(c1cccc(Cl)c1)*; Heptanoyl(6-Me) = CC(C)CCCCC(=O)*; X23 = O=C(c1c(Cl)cc(Cl)cc1Cl)*; Dab = NCC[C@H](N)C(=O)O; Abu = CC[C@H](N)C(=O)O; Dap = NC[C@H](N)C(=O)O; PhAc = O=C(Cc1ccccc1)*

How the values were obtained:
[1] = Nephrotoxicity in a mouse model (kidney histology score); type: in vivo; design: key to Max Overall Kidney Histology Score: product of % score and grade score (grade 1-3); 30 to <45 = moderate; conditions: mice, subcutaneous 12 mg base/kg, 6 doses in one day every 2 h; for Max Overall Kidney Histology Score: kidney ~20 h after last dose, product of percentage score and grade score; for Max Kidney Histology Score: semiquantitative score (SQS) 0 to +5
Procedure: PMB sulphate (Batch 20120204) and colistin sulphate (Batch 20120719) were supplied by Betapharma (Shanghai Co., Ltd, China). […] At ˜20 h after the last dose, mice were euthanised by inhalation of an overdose of isoflurane. […] The formalin-fixed kidneys were then sent to the Australian Phenomics Network-Histopathology and Organ Pathology (The University of Melbourne, Parkville, VIC, Australia) for histological examination. The samples were examined by a pathologist who was blind to the treatment groups. Lesions were rated as follows: mild acute tubular damage with tubular dilation, prominent nuclei and a few pale […] tubular casts (Grade 1); severe acute tubular damage with necrosis of tubular epithelial cells and numerous tubular casts (Grade 2); acute cortical necrosis/infarction of tubules and glomeruli with or without papillary necrosis (Grade 3). […] The overall kidney histology score was calculated as the product of percentage score and grade score. […] These scores were assigned as follows: […] SQS+3=moderate damage (overall score, 30 to <45); […]

Acinetobacter baumannii = conditions: for Minimum inhibitory concentration, Ab A ATCC 17978: Acinetobacter baumannii ATCC 17978; for Minimum inhibitory concentration, Ab A ATCC 17978 / Minimum inhibitory concentration, Ab ATCC 19606 / Minimum inhibitory concentration, Ab FADDI-AB034: broth microdilution in CAMHB; for Minimum inhibitory concentration, Ab ATCC 19606: Acinetobacter baumannii ATCC 19606; for Minimum inhibitory concentration, Ab FADDI-AB034: Acinetobacter baumannii FADDI-AB034
Outline: (§1)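 Lipopeptides, as trifluoroacetate salts, tested for MIC in CAMHB by CLSI broth microdilution, with polymyxin B (sulphate) as comparator.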

Enterobacter cloacae = conditions: for Minimum inhibitory concentration, Ec FADDI-EC001: Enterobacter cloacae FADDI-EC001; for Minimum inhibitory concentration, Ec FADDI-EC001 / Minimum inhibitory concentration, Ec FADDI-EC003 / Minimum inhibitory concentration, Ec FADDI-EC006: broth microdilution in CAMHB; for Minimum inhibitory concentration, Ec FADDI-EC003: Enterobacter cloacae FADDI-EC003; for Minimum inhibitory concentration, Ec FADDI-EC006: Enterobacter cloacae FADDI-EC006
Outline: as §1

Pseudomonas aeruginosa = conditions: for Minimum inhibitory concentration, Pa ATCC 27853: Pseudomonas aeruginosa ATCC 27853; for Minimum inhibitory concentration, Pa ATCC 27853 / Minimum inhibitory concentration, Pa FADDI-PA022 / Minimum inhibitory concentration, Pa FADDI-PA025: broth microdilution in CAMHB; for Minimum inhibitory concentration, Pa FADDI-PA022: Pseudomonas aeruginosa FADDI-PA022; for Minimum inhibitory concentration, Pa FADDI-PA025: Pseudomonas aeruginosa FADDI-PA025
Outline: as §1

P. aeruginosa ATCC 27853 = test: In vivo efficacy in mouse blood infection model (neutropenic Swiss mice); conditions: compound, free base 4 mg/kg intravenously 2 h after inoculation, blood at 4 h
Outline: (§2)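 Activity expressed as Δlog10 CFU/mL blood, treated minus saline control, 4 h after a single 4 mg/kg (free base) i.v. dose given 2 h post-infection. Bloodstream infection from i.v. early log-phase inoculum in Swiss mice made neutropenic by i.p. cyclophosphamide on days −4 (150 mg/kg) and −1 (100 mg/kg).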

Klebsiella pneumoniae = tested on: Klebsiella pneumoniae
Outline: as §1

A. baumannii ATCC 19606 = test: In vivo efficacy in mouse blood infection model (neutropenic Swiss mice); conditions: compound, free base 4 mg/kg intravenously 2 h after inoculation, blood at 4 h
Outline: as §2

[2] = tested on: K. pneumoniae FADDI-KP032; test: as above; conditions: compound, free base 4 mg/kg intravenously 2 h after inoculation, blood at 4 h
Outline: as §2

Molecule | Max Overall Kidney Histology Score [1] | Max Kidney Histology Score [1] | Minimum inhibitory concentration, Ab A ATCC 17978 (Acinetobacter baumannii) | Minimum inhibitory concentration, Ab ATCC 19606 (Acinetobacter baumannii) | Minimum inhibitory concentration, Ab FADDI-AB034 (Acinetobacter baumannii) | Minimum inhibitory concentration, Ec FADDI-EC001 (Enterobacter cloacae) | Minimum inhibitory concentration, Ec FADDI-EC003 (Enterobacter cloacae) | Minimum inhibitory concentration, Ec FADDI-EC006 (Enterobacter cloacae) | Minimum inhibitory concentration, Pa ATCC 27853 (Pseudomonas aeruginosa) | Minimum inhibitory concentration, Pa FADDI-PA022 (Pseudomonas aeruginosa) | Minimum inhibitory concentration, Pa FADDI-PA025 (Pseudomonas aeruginosa) | Δ log (Treated-Control at 4 h) (P. aeruginosa ATCC 27853) | further results
CC[C@@H]1NC(=O)[C@@H](CC(C)C)NC(=O)[C@H](CCN)NC(=O)[C@@H](NC(=O)[C@H](CN)NC(=O)[C@@H](NC(=O)[C@H](CCN)NC(=O)Cc2ccccc2)[C@@H](C)O)CCNC(=O)[C@H]([C@@H](C)O)NC(=O)[C@H](CCN)NC(=O)[C@H](CCN)NC1=O [Compound 78] (PhAc-[Dab]T[Dap][Dab][Dab][dL][Abu][Dab][Dab]T; lactam 4-C) | 0.0 | 0 (SQS 0=no significant change (overall score, <1)) | 2 mg/L (≈ 1.81 µM) | 4 mg/L (≈ 3.62 µM) | 2 mg/L (≈ 1.81 µM) | 0.25 mg/L (≈ 0.226 µM) | 0.25 mg/L (≈ 0.226 µM) | 0.5 mg/L (≈ 0.452 µM) | 1 mg/L (≈ 0.905 µM) | 0.5 mg/L (≈ 0.452 µM) | 4 mg/L (≈ 3.62 µM) | – | –
CC[C@@H]1NC(=O)[C@@H](CC(C)C)NC(=O)[C@H](CCN)NC(=O)[C@@H](NC(=O)[C@H](CN)NC(=O)[C@@H](NC(=O)[C@H](CCN)NC(=O)Cc2cccc(Cl)c2)[C@@H](C)O)CCNC(=O)[C@H]([C@@H](C)O)NC(=O)[C@H](CCN)NC(=O)[C@H](CCN)NC1=O [Compound 79] ({Phenylacetyl(3-Cl)}-[Dab]T[Dap][Dab][Dab][dL][Abu][Dab][Dab]T; lactam 4-C) | 5.0 | +1 (SQS+1=mild damage (overall score, 1 to <15)) | 0.5 mg/L (≈ 0.439 µM) | 1 mg/L (≈ 0.877 µM) | 1 mg/L (≈ 0.877 µM) | 0.25 mg/L (≈ 0.219 µM) | <0.125 mg/L | 2 mg/L (≈ 1.75 µM) | 0.5 mg/L (≈ 0.439 µM) | 1 mg/L (≈ 0.877 µM) | 1 mg/L (≈ 0.877 µM) | −2.28 log10 CFU/mL | MIC (Acinetobacter baumannii; A. baumannii ATCC 19606): 1 mg/L (≈ 0.877 µM); MIC (Klebsiella pneumoniae; K. pneumoniae FADDI-KP032): <0.125 mg/L; MIC (Pseudomonas aeruginosa; P. aeruginosa ATCC 27853): 0.5 mg/L (≈ 0.439 µM)
CC[C@@H]1NC(=O)[C@@H](CC(C)C)NC(=O)[C@H](CCN)NC(=O)[C@@H](NC(=O)[C@H](CN)NC(=O)[C@@H](NC(=O)[C@H](CCN)NC(=O)c2cccc(Cl)c2)[C@@H](C)O)CCNC(=O)[C@H]([C@@H](C)O)NC(=O)[C@H](CCN)NC(=O)[C@H](CCN)NC1=O [Compound 88] ({Benzoyl(3-Cl)}-[Dab]T[Dap][Dab][Dab][dL][Abu][Dab][Dab]T; lactam 4-C) | 0.0 | 0 (SQS 0=no significant change (overall score, <1)) | 0.5 mg/L (≈ 0.444 µM) | 2 mg/L (≈ 1.78 µM) | 0.5 mg/L (≈ 0.444 µM) | 1 mg/L (≈ 0.888 µM) | 0.25 mg/L (≈ 0.222 µM) | 0.5 mg/L (≈ 0.444 µM) | 0.5 mg/L (≈ 0.444 µM) | 1 mg/L (≈ 0.888 µM) | 2 mg/L (≈ 1.78 µM) | −3.33 log10 CFU/mL | Δ log (Treated-Control at 4 h) (A. baumannii ATCC 19606): −2.46 log10 CFU/mL; MIC (Acinetobacter baumannii; A. baumannii ATCC 19606): 2 mg/L (≈ 1.78 µM); MIC (Klebsiella pneumoniae; K. pneumoniae FADDI-KP032): 0.5 mg/L (≈ 0.444 µM); MIC (Pseudomonas aeruginosa; P. aeruginosa ATCC 27853): 0.5 mg/L (≈ 0.444 µM)
CC[C@@H]1NC(=O)[C@@H](CC(C)C)NC(=O)[C@H](CCN)NC(=O)[C@@H](NC(=O)[C@H](CN)NC(=O)[C@@H](NC(=O)[C@H](CCN)NC(=O)c2cccc(Cl)c2Cl)[C@@H](C)O)CCNC(=O)[C@H]([C@@H](C)O)NC(=O)[C@H](CCN)NC(=O)[C@H](CCN)NC1=O [Compound 90] ({Benzoyl(2,3-Cl2)}-[Dab]T[Dap][Dab][Dab][dL][Abu][Dab][Dab]T; lactam 4-C) | 0.0 | 0 (SQS 0=no significant change (overall score, <1)) | 1 mg/L (≈ 0.862 µM) | 2 mg/L (≈ 1.72 µM) | 8 mg/L (≈ 6.9 µM) | 0.5 mg/L (≈ 0.431 µM) | 8 mg/L (≈ 6.9 µM) | 0.25 mg/L (≈ 0.215 µM) | 0.5 mg/L (≈ 0.431 µM) | 2 mg/L (≈ 1.72 µM) | 2 mg/L (≈ 1.72 µM) | – | –
CC[C@@H]1NC(=O)[C@@H](CC(C)C)NC(=O)[C@H](CCN)NC(=O)[C@@H](NC(=O)[C@H](CN)NC(=O)[C@@H](NC(=O)[C@H](CCN)NC(=O)c2c(Cl)cc(Cl)cc2Cl)[C@@H](C)O)CCNC(=O)[C@H]([C@@H](C)O)NC(=O)[C@H](CCN)NC(=O)[C@H](CCN)NC1=O [Compound 95] (X23-[Dab]T[Dap][Dab][Dab][dL][Abu][Dab][Dab]T; lactam 4-C) | 0.0 | 0 (SQS 0=no significant change (overall score, <1)) | 0.25 mg/L (≈ 0.209 µM) | 0.25 mg/L (≈ 0.209 µM) | 0.25 mg/L (≈ 0.209 µM) | <0.125 mg/L | 0.25 mg/L (≈ 0.209 µM) | 1 mg/L (≈ 0.837 µM) | 2 mg/L (≈ 1.67 µM) | 4 mg/L (≈ 3.35 µM) | 2 mg/L (≈ 1.67 µM) | – | –
CC(C)CCCCC(=O)N[C@@H](CCN)C(=O)N[C@H](C(=O)N[C@@H](CCN)C(=O)N[C@H]1CCNC(=O)[C@H]([C@@H](C)O)NC(=O)[C@H](CCN)NC(=O)[C@H](CCN)NC(=O)[C@H]([C@@H](C)O)NC(=O)[C@@H](CC(C)C)NC(=O)[C@H](CCN)NC1=O)[C@@H](C)O [Compound 153, polymyxin M2] ({Heptanoyl(6-Me)}-[Dab]T[Dab][Dab][Dab][dL]T[Dab][Dab]T; lactam 4-C) | – | – | – | – | – | – | – | – | – | – | – | −2.73 log10 CFU/mL | Δ log (Treated-Control at 4 h) (A. baumannii ATCC 19606): −1.26 log10 CFU/mL; Δ log (Treated-Control at 4 h) [2]: −3.59 log10 CFU/mL; MIC (Acinetobacter baumannii): 2 mg/L (≈ 1.75 µM); Minimum inhibitory concentration (MIC), Ab ATCC 17978 (Acinetobacter baumannii): 2 mg/L (≈ 1.75 µM); Minimum inhibitory concentration (MIC), Ab ATCC 19606 (Acinetobacter baumannii): 2 mg/L (≈ 1.75 µM); Minimum inhibitory concentration (MIC), Ab FADDI-AB034 (Acinetobacter baumannii): 1 mg/L (≈ 0.875 µM); Minimum inhibitory concentration (MIC), Ec FADDI-EC001 (Enterobacter cloacae): 0.25 mg/L (≈ 0.219 µM); Minimum inhibitory concentration (MIC), Ec FADDI-EC003 (Enterobacter cloacae): 0.25 mg/L (≈ 0.219 µM); Minimum inhibitory concentration (MIC), Ec FADDI-EC006 (Enterobacter cloacae): 0.5 mg/L (≈ 0.437 µM); MIC (Klebsiella pneumoniae): 0.25 mg/L (≈ 0.219 µM); MIC (Pseudomonas aeruginosa): 0.5 mg/L (≈ 0.437 µM); Minimum inhibitory concentration (MIC), Pa ATCC 27853 (Pseudomonas aeruginosa): 0.5 mg/L (≈ 0.437 µM); Minimum inhibitory concentration (MIC), Pa FADDI-PA022 (Pseudomonas aeruginosa): 4 mg/L (≈ 3.5 µM); Minimum inhibitory concentration (MIC), Pa FADDI-PA025 (Pseudomonas aeruginosa): >32 mg/L
polymyxin B [reference compound] | 60.0 | +5 (SQS+5=severe damage (overall score, >60)) | 1 mg/L | 1 mg/L | 0.5 mg/L | 0.25 mg/L | 0.5 mg/L | 0.5 mg/L | 1 mg/L | 1 mg/L | 1 mg/L | – | nephrotoxicity in the in vivo nephrotoxicity model ([1]; kidney histology ~20 h after last dose): severe nephrotoxicity
